In patent publication US9902713B2, “Neuroprotective compounds and use thereof” (BOARD OF REGENTS OF THE UNIVERSITY OF TEXAS SYSTEM, priority 2013, dated 2018):

What was measured:
[1] = tested on: newborn hippocampal neurons; test: In vivo neuroprotection assay: BrdU+ newborn hippocampal neurons; set-up: species or system mice; conditions: for # cell (E6)/mm^3 (number of BrdU+ cells): in vivo neuroprotection assay, Table 2
Description: Results. Our most robust assay involves monitoring neuroprotection of newborn hippocampal neurons in mice because this assay gives a simultaneous readout of efficacy, acute toxicity and cell permeability. For this reason, all analogs of P7C3 were evaluated initially by infusing them directly into the left lateral ventricle of environmentally-deprived^ix live mice using a subcutaneously implanted osmotic minipump. Compounds were delivered intracerebroventricularly (ICV) over a 7 day period at a concentration of 10 μM (12 μL/d).^x Coincident with ICV administration of drug, mice were dosed daily with the thymidine analog bromodeoxyuridine (BrdU, IP, 50 mg/kg) to mark newly born hippocampal neural precursor cells. At the end of the 1 week dosing, animals were sacrificed and transcardially perfused. Brain slices were stained with antibodies to BrdU, and the number of surviving neural precursor cells was quantified by counting the number of BrdU+ cells in the hippocampal dentate gyrus. To avoid complications arising from the surgical implantation of the pump, we quantified neurogenesis in the hemisphere opposite to compound infusion. Finally, to obtain consistent data across many animals, the number of BrdU+ cells was normalized to the volume of the dentate gyrus.
In Vivo Neuroprotection Assay. Test compounds were evaluated as described previously.^2 Compounds were infused intracerebroventricularly (i.c.v.) into the left lateral ventricle of four adult (12 week old) wild-type C57BL/J6 mice by means of surgically implanted Alzet osmotic minipumps that delivered solution into animals at a constant rate of 0.5 μl/hour for 7 days. Alternatively, compounds were administered intraperitoneally twice daily. Bromodeoxyuridine (BrdU) was injected intraperitoneally at 50 mg/kg/day for six days during pump infusion. Twenty-four hours after the final BrdU administration, mice were sacrificed by transcardial perfusion with 4% paraformaldehyde at pH 7.4, and their brains were processed for immunohistochemical detection of incorporated BrdU in the SGZ. Dissected brains were immersed in 4% paraformaldehyde overnight at 4° C., then cryoprotected in sucrose before being sectioned into 40 μm thick free-floating sections. Unmasking of BrdU antigen was achieved through incubating tissue sections for two hours in 50% formamide/2×SSC at 65° C., followed by a five minute wash in 2×SSC and subsequent incubation for thirty minutes in 2M HCl at 37° C. Sections were processed for immunohistochemical staining with mouse monoclonal anti-BrdU (1:100). The number of BrdU+ cells in the entire dentate gyrus SGZ in the contralateral hemisphere (opposite side of surgically implanted pump) was quantified by counting BrdU+ cells within the SGZ and dentate gyrus in every fifth section throughout the entire hippocampus and then normalizing for dentate gyrus volume.

70 kD polypeptide = test: Photo-crosslinking of 70 kD polypeptide and competition; format: binding; conditions: FIG. 13
Excerpt: Note that non-specific, crosslinked bands are not competed by the “A20” variant, but that crosslinking of the 70 kD band was competed.

[2] = tested on: newborn hippocampal neurons; conditions: previously reported; cited from earlier work
[3] = tested on: motor neurons in the spinal cord; conditions: previously reported; cited from earlier work
[4] = tested on: dopaminergic neurons within the substantia nigra; conditions: previously reported; cited from earlier work

SMILES	increase in the number of BrdU+ cells compared to vehicle ([1]; ICV, 1 week, FIG. 1) [%]	# cell (E6)/mm^3 (number of BrdU+ cells) [1]	also measured
[N-]=[N+]=NCC(F)Cn1c2ccc(Br)cc2c2cc(Br)ccc21 (stereo not shown) [compound 9, 9-(3-azido-2-fluoropropyl)-3,6-dibromo-9H-carbazole]			number of surviving newborn hippocampal neurons ([1]; ICV, 1 week, FIG. 1): inactive
NCC(O)Cn1c2ccc(Br)cc2c2cc(Br)ccc21 (stereo not shown) [compound 14, 1-amino-3-(3,6-dibromo-9H-carbazol-9-yl)propan-2-ol]	30		
O=C(CCCC[C@@H]1SC[C@@H]2NC(=O)N[C@@H]21)NCCOCCOCCOCCn1cc(COc2ccc(OCC(O)Cn3c4ccc(Br)cc4c4cc(Br)ccc43)cc2)nn1 (stereo partly shown) [P7C3-S318]		20.8 (E6)/mm^3	
COc1cccc(NCC(O)Cn2c3ccc(Br)cc3c3cc(Br)ccc32)n1 (stereo not shown) [compound 15, 1-(3,6-dibromo-9H-carbazol-9-yl)-3-((6-methoxypyridin-2-yl)amino)propan-2-ol]	30		
NCC(F)Cn1c2ccc(Br)cc2c2cc(Br)ccc21 (stereo not shown) [compound 10, 3-(3,6-dibromo-9H-carbazol-9-yl)-2-fluoropropan-1-amine]	30		
C#CCOc1ccc(C(=O)c2cccc(NCC(F)Cn3c4ccc(Br)cc4c4cc(Br)ccc43)c2)cc1 (stereo not shown) [P7C3-S326]		25 (E6)/mm^3	photo-crosslinking products (70 kD polypeptide): photo-crosslinking of 70 kD polypeptide
OC(CNc1ccccn1)Cn1c2ccc(Br)cc2c2cc(Br)ccc21 (stereo not shown) [compound 1, 1-(3,6-dibromo-9H-carbazol-9-yl)-3-(pyridin-2-ylamino)propan-2-ol]			activity in the in vivo hippocampal neuroprotection assay (previous studies) [2]: maintaining activity
OC(CNc1ccccc1)Cn1c2ccc(Br)cc2c2cc(Br)ccc21 (stereo not shown) [P7C3, 1-(3,6-dibromo-9H-carbazol-9-yl)-3-(phenylamino)propan-2-ol]		30 (E6)/mm^3	motor neuron cell death in the spinal cord [3]: minimize motor neuron cell death; activity in the in vivo hippocampal neuroprotection assay (previous studies) [2]: approximately doubled; protection of substantia nigra neurons from MPTP (earlier report) [4]: protect neurons in the substantia nigra
C#CCOc1ccc(C(=O)c2ccc(NCC(O)Cn3c4ccc(Br)cc4c4cc(Br)ccc43)cc2)cc1 (stereo not shown) [P7C3-S325]		30.6 (E6)/mm^3	
